Assay results: PubChem BioAssay AID179 (DTP/NCI, 2004)
Where “and” joins values, the source holds several entries; their conditions need not be identical. Identical values can stand only once. Calls of active or inactive are those of the source.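 The calls were made as follows: active = compounds giving half or more protection of infected cells from virus-caused growth loss, again on retest; inactive = the rest.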

Tested on: CEM cells HIV-1 protection, formazan growth assay
Experiment: NCI AIDS Antiviral Assay
Conditions: for IC50: measured here: growth of uninfected CEM cells
Summary of the method: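 Five concentrations of each compound were applied to infected and uninfected human CEM cells. Protection from HIV-1 was judged from growth measured with a soluble formazan assay.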

Row | Compound | EC50 [µM] | IC50 | outcome
1 | C=C1SC(=Nc2c(C)cccc2C)N(c2nc(Cl)nc(Cl)n2)C12CCCCC2 | > 200 | 162 µM | –
2 | c1cnc(NC(Nc2cnccn2)C2CCCCC2)cn1 | > 240 | > 240 µM | –
3 | COC(=O)C1CCC(=O)N1C(c1ccc(OC)cc1)c1ccc2c(c1)OCO2 (stereo not drawn) | > 200 | 11.5 µM | –
4 | C=C(C)CN1CCCN(S(=O)(=O)c2ccc(C)cc2)CC(=C)CN(S(=O)(=O)c2ccc(C)cc2)CCC1 | > 200 | 5.25 µM | –
5 | CCOC(=O)[C@@]12C(C)=CC(=O)O[C@]1(C)C[C@H]2C#N | > 1000 | > 1000 µM | –
6 | Cc1cccc2c1CC1(Cc3c(C)cccc3C1=O)C2=O | > 200 | > 200 µM | –
7 | CCc1c(-c2ccccc2)[nH]c(=S)c(C#N)c1C | > 200 | > 200 µM | –
8 | C/C(=N/NC(=S)N1CCCCCC1)c1ccccc1O | > 200 | 4.27 µM | –
9 | CC(=O)Oc1cc(C)c2c(c1)CCC1C3CCC(OC(C)=O)C3(C)CC(O[N+](=O)[O-])C21O (stereo not drawn) | > 200 | > 200 µM | –
10 | O=C(Cc1nc2ccc([N+](=O)[O-])cc2[nH]c1=O)C(=O)Nc1cc(Cl)c(Cl)cc1Cl | > 29.5 | 11.2 µM | –
11 | COC(=O)C1C2C=CC(C2)C1(C(=O)OC)S(=O)CC12CCC(CC1O)C2(C)C (stereo not drawn) | > 229 | > 229 µM | –
12 | CCCCCCOC(=O)c1[nH]c(=O)[nH]c(=O)c1N | > 200 | > 200 µM | –
13 | COC1/C=C/OC2(C)Oc3c(C)c(O)c4c(O)c(c(C=NN5CCCCCCCC5)c(O)c4c3C2=O)NC(=O)/C(C)=C/C=C/C(C)C(O)C(C)C(O)C(C)C(OC(C)=O)C1C (stereo not drawn) | – | – | inactive
14 | CCc1cc(CCC(=O)Nc2c(C)cccc2C)nc(NC#N)n1 | – | – | inactive
15 | COC(=O)c1cc(C(=CCC(=O)N[C@H]2CC[C@@]3(C)[C@@H](CC[C@@H]4[C@@H]3CC[C@]3(C)[C@@H]([C@H](C)CCCC(C)C)CC[C@@H]43)C2)c2cc(Cl)c(OC)c(C(=O)OC)c2)cc(Cl)c1OC | > 200 | > 200 µM | –
16 | COc1ccc(NC(=O)CC(=O)N2N=C(N3CCCCC3)CC2c2ccccc2)cc1 (stereo not drawn) | > 200 | > 200 µM | –
17 | COc1ccc2cc(C(C)C(=O)N3C(=O)OCC3(C)C)ccc2c1 (stereo not drawn) | > 200 | 91.2 µM | –
18 | COc1cccc2c1OC(c1cccc3ccccc13)C([N+](=O)[O-])=C2 (stereo not drawn) | > 2 | 1.07 µM | –
19 | CC(=O)OCCC1c2ccccc2-n2nc(-c3ccccc3)c(O)c21 (stereo not drawn) | > 200 | 11.2 µM | –
20 | CCOC(=O)c1c(SC(=O)/C=C/c2ccccc2)n(-c2ccccc2)c(=S)n(-c2ccccc2)c1=O | > 200 | 79.4 µM | –
21 | CC(CCC(C)OS(=O)(=O)c1ccc(F)cc1)OS(=O)(=O)c1ccc(F)cc1 (stereo not drawn) | – | – | inactive

Row | Compound | EC50 [µM] | IC50 | outcome
22 | COc1ccccc1C1OC2=C(Nc3ccccc3N2)C1=O (stereo not drawn) | > 170 | > 170 µM | –
23 | O=c1ccs[nH]1 | > 676 | 6.46 µM | –
24 | O=C1NC(=O)c2c1n(Cc1ccccc1)c(=O)n2Cc1ccccc1 | > 77.6 | > 77.6 µM | –
25 | NS(=O)(=O)c1nnc(NC(=O)C23CC4CC(CC(C4)C2)C3)s1 | > 200 | 81.3 µM | –
26 | COc1cc(/C=C(\NC(=O)c2ccccc2)c2nc3ccc4c(c3[nH]2)C(=O)c2ccccc2C4=O)cc(OC)c1OC | – | – | inactive
27 | Clc1ccccc1CN1COc2c(ccc3ccccc23)C1 | > 200 | 28.8 µM | –
28 | Cc1cn(C2CC(C)N(CCO)O2)c(=O)[nH]c1=O (stereo not drawn) | > 200 | > 200 µM | –
29 | CC(=O)Cc1cc(=O)c2c(C)cc(O)c(C3OC(CO)C(O)C(O)C3O)c2o1 (stereo not drawn) | 31.6 | 316 µM | –
30 | O=S1(=O)c2ccc(cc2)N=CC=Nc2ccc1cc2 | > 33.1 | > 33.1 µM | –
31 | NC(N)NCCCc1cn2c(n1)C1CCCN1C(=O)C2Cc1ccccc1 (stereo not drawn) | > 676 | > 676 µM | –
32 | CCCCCCCCC(=O)NCCN(CCN)C(=O)CCCCCCCC | > 100 | 5.5 µM | –
33 | CCCCCCCCCCCCCCCCCCNC(=S)/N=C/c1c(O)c2ccccc2[nH]c1=O | > 200 | 44.7 µM | –
34 | CN1C(=O)C2CCC1n1c(=O)n(-c3ccccc3)c(=O)n12 (stereo not drawn) | – | – | inactive
35 | N=Nc1c2ccccc2c2nc3c(N)[nH]nc(N)c3nc12 | > 45.7 | 28.8 µM | –
36 | O=C1/C(=C/c2ccc(Cl)c(Cl)c2)CN(C(=O)CCN2CCOCC2)C/C1=C\c1ccc(Cl)c(Cl)c1 | > 22.9 | 0.12 µM | –
37 | COc1ncc(C#CC(=O)c2ccccc2OC)c(OC)n1 | > 0.2 | 0.132 µM | –
38 | O=[N+]([O-])c1ccc2nc(-c3ccccc3[N+](=O)[O-])[nH]c2c1 | > 126 | 24.5 µM | –
39 | O=C1O/C(=C(\Br)c2ccc([N+](=O)[O-])cc2)c2ccccc21 | > 200 | 16.6 µM | –
40 | CC(=O)Oc1ccc2c(c1)nnn2C(C)=O | > 200 | > 200 µM | –
41 | CCOC(=O)C(N=Nc1ccc(S(N)(=O)=O)cc1)C(C)=O (stereo not drawn) | > 794 | 389 µM | –
42 | COc1ccc(NC(=O)/C(Cc2cc(=O)oc3cc(O)ccc23)=N\NC(C)(C)C)c(OC)c1 | > 30.2 | > 30.2 µM | –

Row | Compound | EC50 [µM] | IC50 | outcome
43 | N[C@@H]1c2c(Br)sc(Br)c2C(=O)[C@H]1Br | > 200 | 23.4 µM and 26.9 µM | –
44 | CC1=C(C(=O)Nc2cc(=O)n(C)c(=O)n2C)C(c2cccc([N+](=O)[O-])c2)C(C(=O)Nc2cc(=O)n(C)c(=O)n2C)=C(C)N1 | > 31.6 | > 31.6 µM | –
45 | CSc1ccc(NC(=O)Nc2cc(C)ccn2)cc1 | > 200 | 191 µM | –
46 | CN(NC(=O)c1ccco1)C1=NCCN1 | > 200 | > 200 µM | –
47 | CCc1cccc(C)c1NC(=O)CCc1n[nH]c(=S)o1 | > 617 | > 617 µM | –
48 | OC(CC(O)(C(F)(F)F)C(F)(F)F)C(O)c1ccco1 (stereo not drawn) | > 200 | 58.9 µM | –
49 | CS(=O)(=O)c1ccc(C(=O)O[C@@H]2C(=O)N3CC[C@H]4OC(O)[C@@H]2[C@H]43)cc1 (stereo partly drawn) | > 200 | > 200 µM | –
50 | Cc1ccc(C2=C(c3ccccc3)C(=O)C(c3ccccc3)=C2c2ccc(C)cc2)cc1 | > 87.1 | > 87.1 µM | –
51 | COC(=O)c1ccccc1COC(=O)c1cc(C(=CCC[C@H]2CC[C@@]3(C)[C@@H](CC[C@@H]4[C@@H]3CC[C@]3(C)[C@@H](C(C)CCCC(C)C)CC[C@@H]43)C2)c2cc(Cl)c(OCc3ccccc3C(=O)OC)c(C(=O)OCc3ccccc3C(=O)OC)c2)cc(Cl)c1OCc1ccccc1C(=O)OC (stereo partly drawn) | > 200 | > 200 µM | –
52 | N.N.N.N.N.N.O=N[O-].[Br-].[Co+3].[Co+3].[OH3+].[OH3+] | – | – | inactive
53 | Cc1cc(N=Nc2ccc(Sc3ccc(N=Nc4ccc(O)c(C(=O)O)c4)cc3)cc2)c(N)c(N=Nc2ccc(C(=O)O)cc2)c1N | > 200 | 27.5 µM | –
54 | CCOC(=O)C1=NN(c2ccccc2)C(=O)/C1=C\N1C(=O)/C(=C/c2cccc(O)c2)SC1=S | > 200 | 38.9 µM | –
55 | O=c1c2ccc(Br)cc2nc(-c2ccccc2)n1NC1OC(CO)C(O)C(O)C1O (stereo not drawn) | – | – | inactive
56 | Cc1ccc(NC(=O)CC2C(=O)Nc3ccccc3S2=O)cc1C (stereo not drawn) | > 15.1 | > 15.1 µM | –
57 | CCOC(=O)C1=C(O)CSC1=Nc1ccc(N=C2SCC(O)=C2C(=O)OCC)cc1 | – | – | inactive
58 | CN=C1SC(=Nc2ccc(N(C)C)cc2)N1C | – | – | inactive
59 | Nc1ccc(N=O)c(N)n1 | > 200 | > 200 µM | –
60 | COC(=O)C1=CCC(n2cnc3c(N)ncnc32)CC1 (stereo not drawn) | > 912 | 110 µM | –
61 | [CH3][Sn]([CH3])([Cl])[CH2]C(P(=O)(c1ccccc1)c1ccccc1)P(=O)(c1ccccc1)c1ccccc1 | > 50.1 | 2.29 µM | –
62 | c1cncc(CSc2nc3ccccc3nc2-c2cccs2)c1 | > 1.55 | > 1.55 µM | –
63 | CSc1nc2c(nc(N)n2C2OCC(O)C(O)C2O)c(=O)[nH]1 (stereo not drawn) | – | – | inactive

Row | Compound | EC50 [µM] | IC50 | outcome
64 | Cn1c(=N)c(C#N)c2n(c1=S)CCCCCCC2 | > 200 | 97.7 µM | –
65 | C=C1C(=O)[C@@]23C(O)C[C@@H]4C(C)(C)CCC(O)C4(COC(C)=O)[C@@H]2CC[C@@H]1[C@H]3O (stereo partly drawn) | > 631 | 0.372 µM | –
66 | O=C(N/N=C/c1ccc(Cl)cc1)c1ccccc1Nc1ccccc1C(=O)N/N=C/c1ccc(Cl)cc1 | 55 | > 200 µM | –
67 | O=C(N=C1SCCN1C(=O)C(C(F)(F)F)C(F)(F)F)C(C(F)(F)F)C(F)(F)F | > 200 | > 200 µM | –
68 | CC(=O)OCC1OC(SC2=N/C(=C\c3ccc(Br)s3)C(=O)N2c2ccccc2)C(OC(C)=O)C(OC(C)=O)C1OC(C)=O (stereo not drawn) | > 200 | 123 µM and 33.9 µM | –
69 | C=CCNC(=S)N1CC(C)C(=O)Nc2cc(Cl)ccc21 (stereo not drawn) | > 200 | > 200 µM | –
70 | O=C(O/C(=C(/N=Nc1ccccc1)c1ccccc1)c1ccccc1)c1ccccc1 | – | – | inactive
71 | COC1/C=C/OC2(C)Oc3c(C)c(O)c4c(O)c(c(/C=N/N5CCN(Cc6ccccc6)CC5)c(O)c4c3C2=O)NC(=O)C(C)=C/C=C/C(C)C(O)C(C)C(O)C(C)C(OC(C)=O)C1C (stereo not drawn) | > 200 | 10.2 µM | –
72 | O=C1CN(c2cccc(Cl)c2)C(=O)CN1NCNN1CC(=O)N(c2cccc(Cl)c2)CC1=O | > 200 | > 200 µM | –
73 | CNC(=O)Oc1ccc(Cl)cc1SSc1cc(Cl)ccc1OC(=O)NC | > 200 | 8.32 µM | –
74 | CN(C)c1ccc(-c2nn(C)c3nc(=O)n(C)c(=O)c-3[n+]2[O-])cc1 | > 200 | 0.562 µM | –
75 | [CH2+][B-]1(C)n2cc(Br)c[n+]2[B-](C)(C)[n+]2cc(Br)cn21 | > 200 | 105 µM | –
76 | COc1ccc(NCc2cnc3nc(N)nc(N)c3c2C)cc1 | > 200 | 0.437 µM | –
77 | Cc1cc(=O)oc2cc3c(cc12)CCCN3 | > 33.9 | > 33.9 µM | –
78 | Cc1cccc(Nc2ccccc2C(=O)O)c1C | > 200 | 129 µM | –
79 | O=c1[nH]c(=O)n(C2CC(O)C(CO)O2)cc1OCC1CCCCC1 (stereo not drawn) | > 200 | > 200 µM | –
80 | O=C(O)Cn1[se]c2ccccc2c1=O | 46.8 | 120 µM | –
81 | O=C(Nc1ccc([N+](=O)[O-])cc1)C(=O)C(C(=O)c1ccccc1F)C1OC(=O)c2ccccc21 (stereo not drawn) | > 204 | 8.71 µM | –
82 | O=C(O)c1cc(Cl)n[nH]c1=O | > 1410 | > 1410 µM | –
